# ChEMBL document CHEMBL4270586, “Novel hydrazido benzenesulfonamides-isatin conjugates: Synthesis, carbonic anhydrase inhibitory activity and molecular modeling studies” (Eur J Med Chem, 2018)
# Target: Carbonic anhydrase 9 (Homo sapiens, UniProt Q16790)
# Assay: Inhibition of recombinant human carbonic anhydrase 9 incubated for 15 mins prior to testing by stopped flow CO2 hydration assay
row,Ki,SMILES
1,31.5 nM,NS(=O)(=O)c1ccc(C(=O)NN=C2C(=O)Nc3ccc(Cl)cc32)cc1
2,77.9 nM,C=CCN1C(=O)C(=NNC(=O)c2ccc(S(N)(=O)=O)cc2)c2ccccc21
3,32.3 nM,NS(=O)(=O)c1ccc(C(=O)NN=C2C(=O)Nc3ccc(F)cc32)cc1
4,197 nM,Cc1ccc2c(c1)C(=NNC(=O)c1ccc(S(N)(=O)=O)cc1)C(=O)N2
5,30.6 nM,CN1C(=O)C(=NNC(=O)c2ccc(S(N)(=O)=O)cc2)c2ccccc21
6,8.9 nM,CCN1C(=O)C(=NNC(=O)c2ccc(S(N)(=O)=O)cc2)c2ccccc21

# Further lines, the molecule ahead of its results:
row,SMILES,Ki
1,COc1ccc2c(c1)C(=NNC(=O)c1ccc(S(N)(=O)=O)cc1)C(=O)N2,264 nM
2,CCOC(=O)CN1C(=O)C(=NNC(=O)c2ccc(S(N)(=O)=O)cc2)c2ccccc21,17.7 nM
3,CC(C)N1C(=O)C(=NNC(=O)c2ccc(S(N)(=O)=O)cc2)c2ccccc21,177 nM
4,NS(=O)(=O)c1ccc(C(=O)NN=C2C(=O)Nc3ccc(Br)cc32)cc1,101 nM
5,Cc1ccc(CN2C(=O)C(=NNC(=O)c3ccc(S(N)(=O)=O)cc3)c3ccccc32)cc1,81.2 nM
6,NS(=O)(=O)c1ccc(C(=O)NN=C2C(=O)Nc3ccc([N+](=O)[O-])cc32)cc1,23.8 nM
7,NS(=O)(=O)c1ccc(C(=O)NN=C2C(=O)N(Cc3ccccc3)c3ccccc32)cc1,25.2 nM
8,CCCN1C(=O)C(=NNC(=O)c2ccc(S(N)(=O)=O)cc2)c2ccccc21,30.1 nM
9,NS(=O)(=O)c1ccc(C(=O)NN=C2C(=O)N(Cc3ccc(F)cc3)c3ccccc32)cc1,148 nM
10,Cc1cc(C)c2c(c1)C(=NNC(=O)c1ccc(S(N)(=O)=O)cc1)C(=O)N2,716 nM
11,NS(=O)(=O)c1ccc(C(=O)NN=C2C(=O)Nc3ccccc32)cc1,174 nM
12,CCCCN1C(=O)C(=NNC(=O)c2ccc(S(N)(=O)=O)cc2)c2ccccc21,27.4 nM
